Experimental data: publication PMC2063833 (The Journal of Cell Biology, 2006)

Target: T1, Ssy1p (Saccharomyces cerevisiae, UniProt Q03770)
T1 sequence (Q03770 1-852): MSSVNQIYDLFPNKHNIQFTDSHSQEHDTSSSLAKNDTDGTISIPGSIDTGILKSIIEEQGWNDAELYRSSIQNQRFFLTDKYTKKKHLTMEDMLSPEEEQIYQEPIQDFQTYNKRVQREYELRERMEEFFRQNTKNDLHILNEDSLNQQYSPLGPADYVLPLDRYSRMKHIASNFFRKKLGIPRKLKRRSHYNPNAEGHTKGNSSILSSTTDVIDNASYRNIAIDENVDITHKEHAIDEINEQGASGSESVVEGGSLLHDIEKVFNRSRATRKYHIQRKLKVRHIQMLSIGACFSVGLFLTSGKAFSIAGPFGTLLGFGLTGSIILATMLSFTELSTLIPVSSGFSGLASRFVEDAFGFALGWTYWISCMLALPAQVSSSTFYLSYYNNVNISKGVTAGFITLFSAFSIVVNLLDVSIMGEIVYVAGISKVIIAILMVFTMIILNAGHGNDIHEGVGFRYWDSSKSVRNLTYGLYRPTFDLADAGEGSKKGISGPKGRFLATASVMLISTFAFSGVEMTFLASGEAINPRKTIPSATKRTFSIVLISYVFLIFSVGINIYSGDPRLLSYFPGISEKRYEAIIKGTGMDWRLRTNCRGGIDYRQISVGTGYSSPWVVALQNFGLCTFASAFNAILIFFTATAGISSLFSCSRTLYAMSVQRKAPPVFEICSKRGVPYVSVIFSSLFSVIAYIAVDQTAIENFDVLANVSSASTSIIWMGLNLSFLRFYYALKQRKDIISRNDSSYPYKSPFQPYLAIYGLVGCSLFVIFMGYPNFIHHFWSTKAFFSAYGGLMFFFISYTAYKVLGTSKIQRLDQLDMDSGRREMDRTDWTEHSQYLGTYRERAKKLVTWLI
Test: Ssy1p signaling measured as Stp1p processing
Assay type: cell-based
Details: for EC50: EC50 for sensing of extracellular amino acid, grown in SD

Row | SMILES | Effect on EC50 of adding isoamyl alcohol (isoamyl alcohol at relevant concentrations, unpublished data) | EC50 (experiment 1, strain M5447 (ura3 gap1Δ), Leuc 0.5 μmol/g DW, mean of triplicate) [µM] | EC50 (experiment 5, strain M5568 (ura3 gap1Δ bap2Δ tat1Δ bap3Δ agp1::URA3), Leuc 1 μmol/g DW) [µM] | EC50 (experiment 9, strain M5446 (ura3 gap1Δ LEU4-fbr), Leuc 12 μmol/g DW) [µM]
1 | CC(C)CCO [isoamyl alcohol] | no significant effect | – | – | –
2 | CC(C)C[C@H](N)C(=O)O [Leu, leucine] | – | 13 | 15 | 30
